Source: patent publication US12599616B2, “Subtituted sulfonylurea and sulfoximineurea derivatives” (Zydus Lifesciences Limited, priority 2020, dated 2026)
pIC50: −log10 of the molar value.

System: IL-1β
Experiment: In vitro IL-1β inhibition in PMA-differentiated, LPS-primed, ATP-stimulated THP1 cells
Type: cell-based
Details: Homo sapiens, THP-1; THP1 monocytes differentiated with PMA, primed with 500 ng/ml LPS 4 h, compound 30 min, 5 mM ATP 1 hr; IL-1b in supernatant; read-out: invitro IL-1β inhibitory activity (IC50)
Experimental: THP1 monocytes were differentiated with PMA (100 ng/ml) and incubated at 37° C. for 20 hrs in presence of 5% CO2. 2×10^5 differentiated cells were plated per well of 96 well tissue culture plates. The cells were primed using 500 ng/ml Lipopolysaccharide and incubating for 4 h under the same condition. The cells were then treated with various concentrations of the compounds for 30 min followed by treatment with 5 mM ATP for 1 hr. The supernatants were collected and analyzed by IL-1b (Mabtech Cat #3415-1H-20) or TNF-a (Mabtech; Cat #3510-1H-20) detection kit. The data were analyzed using GraphPad Prism V7.0. Dose Response Curve (DRC) was constructed to determine the IC50 value by fitting percentage cell survival data to the GraphPad Prism using nonlinear regression analysis.

Structure (SMILES)	pIC50
CC(C)NC/C=C/S(=O)(=O)NC(=O)Nc1c2c(cc3c1CCC3)CCC2 [Example 1, (E)-N-((1,2,3,5,6,7-hexahydro-s-indacen-4-yl)carbamoyl)-3-(isopropylamino)prop-1-ene-1-sulfonamide]	7.37
CC(C)N(C)C/C=C/S(=O)(=O)NC(=O)Nc1c2c(cc3c1CCC3)CCC2 [Example 5, (E)-N-((1,2,3,5,6,7-hexahydro-s-indacen-4-yl)carbamoyl)-3-(isopropyl(methyl)amino)prop-1-ene-1-sulfonamide]	7.70
CN(C)C(C)(C)/C=C/S(=O)(=O)NC(=O)Nc1c2c(cc3c1CCC3)CCC2 [Example 6, (E)-3-(dimethylamino)-N-((1,2,3,5,6,7-hexahydro-s-indacen-4-yl)carbamoyl)-3-methylbut-1-ene-1-sulfonamide]	8.25
O=C(Nc1c2c(cc3c1CCC3)CCC2)NS(=O)(=O)/C=C/CN1CCCC1 [Example 18, (E)-N-((1,2,3,5,6,7-hexahydro-s-indacen-4-yl)carbamoyl)-3-(pyrrolidin-1-yl)prop-1-ene-1-sulfonamide]	8.18
CCN(C)C(C)(C)/C=C/S(=O)(=O)NC(=O)Nc1c2c(cc3c1CCC3)CCC2 [Example 20, (E)-3-(ethyl(methyl)amino)-N-((1,2,3,5,6,7-hexahydro-s-indacen-4-yl)carbamoyl)-3-methylbut-1-ene-1-sulfonamide]	8.00
CN(C1CCC1)C(C)(C)/C=C/S(=O)(=O)NC(=O)Nc1c2c(cc3c1CCC3)CCC2 [Example 21, (E)-3-(cyclobutyl(methyl)amino)-N-((1,2,3,5,6,7-hexahydro-s-indacen-4-yl)carbamoyl)-3-methylbut-1-ene-1-sulfonamide]	8.22
CC(C)N(C)C(C)(C)/C=C/S(=O)(=O)NC(=O)Nc1c2c(cc3c1CCC3)CCC2 [Example 24, (E)-N-((1,2,3,5,6,7-hexahydro-s-indacen-4-yl)carbamoyl)-3-(isopropyl(methyl)amino)-3-methylbut-1-ene-1-sulfonamide]	8.12
CC(C)CN(C)C(C)(C)/C=C/S(=O)(=O)NC(=O)Nc1c2c(cc3c1CCC3)CCC2 [Example 35, (E)-N-((1,2,3,5,6,7-hexahydro-s-indacen-4-yl)carbamoyl)-3-(isobutyl(methyl)amino)-3-methylbut-1-ene-1-sulfonamide]	7.96
CN(C)C/C=C/S(=O)(=O)NC(=O)Nc1c2c(cc3c1CCC3)CC=C2 [Example 36, (E)-3-(dimethylamino)-N-((1,2,3,7-tetrahydro-s-indacen-4-yl)carbamoyl)prop-1-ene-1-sulfonamide]	8.02
CC(C)(/C=C/S(=O)(=O)NC(=O)Nc1c2c(cc3c1CCC3)CCC2)N1CCCC1 [Example 42, (E)-N-((1,2,3,5,6,7-hexahydro-s-indacen-4-yl)carbamoyl)-3-methyl-3-(pyrrolidin-1-yl)but-1-ene-1-sulfonamide]	7.90
CC(C)(/C=C/S(=O)(=NC#N)NC(=O)Nc1c2c(cc3c1CCC3)CCC2)NC(=O)OC(C)(C)C (stereo not drawn) [Example 47, tert-butyl (E)-(4-(N′-cyano-N-((1,2,3,5,6,7-hexahydro-s-indacen-4-yl)carbamoyl)sulfamidimidoyl)-2-methylbut-3-en-2-yl)carbamate]	8.42
CN(C)C(C)(C)/C=C/S(=O)(=NC#N)NC(=O)Nc1c2c(cc3c1CCC3)CCC2 (stereo not drawn) [Example 49, (E)-N′-cyano-3-(dimethylamino)-N-((1,2,3,5,6,7-hexahydro-s-indacen-4-yl)carbamoyl)-3-methylbut-1-ene-1-sulfonimidamide]	8.19
